Data as given in publication PMC7018972, “Novel and selective inactivators of Triosephosphate isomerase with anti-trematode activity” (Scientific Reports, 2020).
Entries after “also recorded” stand apart in the source; their conditions may differ. Marks after values point to notes of the source that are not given here.

What was measured:
[1] = system: NEJ; parameters: method as in PMID 22536349; details: 48 h, fixed dose of 20 µM; cited from earlier work
[2] = system: murine macrophages and human peripheral blood mononuclear cells; parameters: method as in PMID 22536349; details: at 100 µM; cited from earlier work
[3] = system: adult form of F. hepatica; assay: Ex-vivo assay in the adult form of F. hepatica; type: cell-based, Fasciola hepatica
Experimental: F. hepatica were collected from natural infections of cattle obtained from Casablanca slaughterhouse in Paysandú, Uruguay[49]. […] After flukes emptied their gut content (i.e. the gut was not dark anymore) they were transferred to 6 well plates (one fluke per well) with 2 mL of RPMI 1640 media with 200 U/mL Penicillin G sulfate, […] streptomycin sulfate, 500 ng/mL amphotericin B and 10 mM glucose at 37 °C. […] The antiparasitic efficacy was expressed as the percentage reduction of the number of flukes in the treated group compared with the control group.

[4] = Acute oral toxicity (up-and-down); type: in vivo; details: mice
Experimental: Briefly, healthy young adult male BALB/c mice (30 days old, 25 to 30 g) were used in this study. […] The animal was fasted, maintained, and observed for 14 days according to the OECD guidelines. If the mouse survived for the first 48 h, another animal received the same dose. If this was repeated, a third animal was dosed with 2,000 mg/kg and also observed for 14 days. The experiment ends at 14 days post-administration, if there are no signs of toxicity, the (LD50) is the administered dose, if not, the software AOT AOT425 Stat program recommendation was followed. […] In parallel, sodium oleate was dissolved in phosphate buffer and left in an orbital shaker for 12 h at room temperature. The former was then added to the evaporated residue, and the mixture was homogenized and placed in an ultrasonic bath at full power for 30 min. The sample was kept at room temperature until use.

[5] = system: thioredoxin glutathione reductase; parameters: method as in PMID 22536349; details: cited from earlier work
[6] = system: S. mansoni adults; assay: S. mansoni adults phenotypic screen ex vivo; type: cell-based, Schistosoma mansoni; details: for ADULTS SEVERITY SCORE: Table 2S, 5 uM
Source text: (§1) The NMRI isolate of S. mansoni was maintained by passage through Biomphalaria glabrata snails and 3–5 week-old, female Golden Syrian hamsters (Charles River, San Diego, CA) as intermediate and definite hosts, respectively. A dose of 600 infective larvae (cercariae) was used to infect hamsters. The acquisition, preparation and in vitro maintenance of S. mansoni post-infective larvae (schistosomula or somules) and adults have been already described[5],[50],[51]. Vertebrate animal maintenance and handling at the University of California San Diego Animal Care Facility were in accordance with protocols approved by the university’s Institutional Animal Care and Use Committee (IACUC).
Phenotypic screens with 42-day-old, adult parasites were performed in 24-well plates (Costar cat.# 3526) containing the above medium and approximately five adult males and two females per well. Compound was added in a volume of up to 1 μL DMSO at a concentration of 5 µM (0.05% DMSO final). Assay plates were incubated at 37 °C in a 5% CO2 environment. Parasite phenotypes were recorded at 4, 8 and 24 h using a Zeiss Axiovert 40 C.
(§2) Schistosome phenotypic responses were recorded employing a series of ‘descriptors,’ such as rounding, degeneration, overactivity, loss of translucency and changes in motility, as described previously[5],[50],[51],[53]. To allow for comparisons of compound activity, each descriptor was awarded a value of 1 and these were added up to a maximum ‘severity score’ of 4. Evidence of degeneracy or death was awarded the maximum score of 4. Scores were averaged across duplicate wells for each compound (see details in the supporting information).

[7] = system: S. mansoni somules; assay: S. mansoni somules phenotypic screen in vitro; type: cell-based, Schistosoma mansoni; details: for SOMULES SEVERITY SCORE: Table 2S, 10 uM
Source text: as §1
Phenotypic screens with somules were performed as described[5],[50],[51]. Initially, 100 μL Basch medium, 100 U/ml penicillin, […] streptomycin, 4% heat-inactivated FBS (Corning Mediatech) and 1 μl compound in DMSO were added to clear, 96-well round-bottomed plates (Costar cat.# 3367). Then, 100 μL of the same medium containing 40–50 somules was added to mix the compound with somules (final concentration of DMSO was 0.5%). Assay plates were placed into plastic boxes humidified with wet tissue and then incubated at 37 °C in a 5% CO2 environment. Somules phenotypes were recorded every 24 h up to 72 h using an inverted microscope (Zeiss Axiovert 40 C).
as §2

[8] = biological target: T1, human (HsTIM) (Homo sapiens, UniProt P60174); assay: Selectivity assay, inhibition of HsTIM; type: biochemical; details: read-out: inhibition against HsTIM
T1 construct: made in house; host or cells: Escherichia coli
T1 sequence (P60174 whole entry): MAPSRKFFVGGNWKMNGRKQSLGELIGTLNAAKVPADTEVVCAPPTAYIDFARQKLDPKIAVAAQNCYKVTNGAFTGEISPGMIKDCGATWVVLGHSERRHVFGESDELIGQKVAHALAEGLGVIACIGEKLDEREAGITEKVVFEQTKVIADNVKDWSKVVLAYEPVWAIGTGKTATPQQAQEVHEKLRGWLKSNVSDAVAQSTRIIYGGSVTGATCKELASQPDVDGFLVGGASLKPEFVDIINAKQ
Experimental: Expression and purification of proteins: FhTIM, RabbitTIM and HsTIM were expressed in Escherichia coli and purified as described in the literature[31],[37]. After purification, the enzyme, dissolved in 100 mM triethanolamine, 10 mM EDTA and 1 mM dithiothreitol (pH 8), was precipitated with ammonium sulfate (75% saturation) and stored at 4 °C. Before use, extensive dialysis against 100 mM triethanolamine/10 mM EDTA (pH 7.4) was performed. Protein concentration was determined by absorbance at 280 nm for FhTIM (ε = 33,460 M^−1cm^−1) and for RabbitTIM and HsTIM (ε = 33,460 M^−1cm^−1). Enzymatic activity was determined following the conversion of glyceraldehydes-3-phosphate into dihydroxyacetone phosphate in a coupled enzyme assay. The decrease in absorbance at 340 nm was followed in a multiplate reader VarioskanTM Flash Multimode Reader (Thermo ScientificTM, Waltham, MA, USA) at 38 °C. The reaction mixture (1 mL, pH 7.4) contained 100 mM triethanolamine, 10 mM EDTA, 0.2 mM NADH, 1 mM glyceraldehydes-3-phosphate and 0.9 units of α-glycerol phosphate dehydrogenase. The reaction was initiated by the addition of 5 ng/mL of the TIM of interest. For the inhibition studies, TIM was incubated at a concentration of 5 mg/mL in a buffer containing 100 mM triethanolamine, 10 mM EDTA, pH 7.4 and 10% of DMSO at 37 °C for 1 h. The mixture also contained the compounds, dissolved in DMSO, at the indicated concentrations. After 1 h, 10 µL were withdrawn and added to a final volume of 100 µL of the reaction mixture for the activity assay. The inhibition assay was performed in a 96-well microplate. None of the molecules tested here affected the activity of α-glycerol phosphate dehydrogenase, the enzyme used in the coupled assay. The IC50 value was taken as the concentration of drug needed to reduce the enzymatic activity to 50% by analysis using OriginLab8.5® sigmoidal regression (% of enzymatic activity vs. the logarithm of the compound concentration). The experiments were performed in triplicate in two independent experiments.

Row | Compound | effect on NEJ in words [1] | toxicity in words [2] | effect on adult F. hepatica in words ([3]; after 24 h, 10 µM) | effect on adult F. hepatica in words ([3]; first 4 h at 10 µM) | acute oral toxicity in words [4] | LD50 ([4]; up-and-down, 14 days) | inhibition of thioredoxin glutathione reductase in words [5] | effect on S. mansoni adults in words ([6]; 24 h, 5 µM) | ADULTS SEVERITY SCORE ([6]; 4 h) | ADULTS SEVERITY SCORE ([6]; 8 h) | ADULTS SEVERITY SCORE ([6]; 24 h) | S. mansoni somules severity score ([7]; Table 2, 24 h, score 0 to maximum 4) | SOMULES SEVERITY SCORE ([7]; 24 h) | SOMULES SEVERITY SCORE ([7]; 48 h) | SOMULES SEVERITY SCORE ([7]; 3d) | effect on S. mansoni somules in words ([7]; in the first 24 h) | inhibition at 100 µM [8]
1 | Cc1ccc(-c2nsc(S(=O)(=O)c3ccc(C)cc3)n2)cc1 [Compound 187] | showed effect | non-toxic | death of all the parasites | parasites were affected | low toxicity | ≥ 2000 mg/kg body weight | moderate inhibitor | decreased the motility of adults and the ability of their oral and ventral suckers to adhere; also recorded: decreased motility and loss of their ventral sucker adherence to the plate floor | 0 | 0 | 2 | 4 (24 h)^## | 4 | 4 | 4 | lethal to somules | < 20%
2 | CSc1nc2cc(Cl)c(Oc3cccc(Cl)c3Cl)cc2[nH]1 [Compound 1278, triclabendazole, reference compound] |  |  |  |  |  |  |  |  |  |  |  |  |  |  |  |  | < 20%
